Read-outs that look alike come from different tables or passages of the source. Where a SMILES comes first, the peptide text is derived from it. Bridges are numbered along the chain shown (N, C = ends).
What was measured:
[1] = test system: Aβ25-35-induced short-term memory deficits; assay: Spontaneous alternation performance (Y-maze), treatment started 1 hour after Aβ25-35 injection, tested D08; type: in vivo, mice; settings: for Y-maze % (Sc.Aβ / Vhc = 100) / Y-maze Mean, percentage of alternation: D08
[2] = test system: Aβ25-35-induced long-term memory deficits; assay: Step-through passive avoidance test (STPA), D09-D10; type: in vivo, mice
[3] = test system: Aβ25-35-induced short-term memory deficits; assay: Long-term study (120 days): weekly Y-maze, NX218 and/or DPZ based treatments; type: in vivo, mice
Procedure: To investigate the potential of NX218 treatment to maintain cognitive restoration for a longer duration and to work as a 2nd line treatment when DPZ lose its activity: a long-term study (120 days) was performed in the Aβ25-35 mouse model of Tauopathies.
Mice were assigned to 6 treatment groups with 5-6 animals per group as described below.
From D01 until D120, mice of groups 1 and 2 were administered IP once a day (o.d.) with vehicle (water for injection).
Test compound NX218: • From D11 until D38, mice of group 3 were administered IP o.d. with NX218 at 2 mg/kg (mice were not treated with vehicle from D01 until D10). • From D01 until D120, mice of group 4 were administered IP o.d. with NX218 at 2 mg/kg.
DPZ rescued by test compound NX218: • From D01, mice of group 5 were administered PO by gavage o.d with DPZ at its active dose (1 mg/kg) until its effect disappears. Its efficacy disappeared on D36. DPZ was administered until D43 and then from D44, NX218 replaced DPZ until D78 via IP administration once a day at its active dose (2 mg/kg). • From D79 until D99: NX218 was administered via IP administration o.d. at a higher dose (4 mg/kg). • From D100 until D113 NX218 was administered via IP administration o.d. at a higher dose (8 mg/kg). • Administration of NX218 was stopped from D114 until animals were sacrificed.
Test compound NX218 in combination with DPZ: • From D01 until D120, mice of group 6 were co-administered with NX218 and DPZ at their respective subactive doses: • NX218: IP o.d., 0.1 mg/kg • DPZ: PO o.d., 0.25 mg/kg
All groups performed one behavioral test every week starting on D08 (7 days after Aβ25-35 peptide injection) to monitor the effects of the compounds:
Spontaneous alternation procedure in the Y-maze (YM, assessing spatial short-term/working memory as described in example 3) on D08, D15, D22, D29, D36, D43, D50, D57, D64, D71, D78, D85, D92, D99, D106, D113 and D120.

[4] = Preliminary PK study in rat; type: in vivo; settings: slow bolus IV 49 mg/kg of NX210
Procedure: (§1) Therefore NX210 PK in animals is followed by the measurement of its cyclic form NX218. First a preliminary PK study in rat was performed in order to validate the method for detecting NX218 in plasma then translated to monkey by performing a more robust PK study with repeated experiments. All PK studies were performed with NaCl 0.9% as vehicle.

PK study in monkey = type: in vivo; settings: for half-life: plasma, iv, 10 mg/kg
Procedure: as §1
In the 3 monkeys tested, data were reproducible after repeated testing at different days (D22, D37 and D51), after bolus IV injection of 10 mg/kg of NX210.

[5] = once a day, NX210 0.1 mg/kg, NX218 0.1 mg/kg, DPZ 0.25 mg/kg
[6] = monkey plasma NX218 after bolus IV 10 mg/kg NX210, mean

COc1cc2c(cc1OC)C(=O)C(CC1CCN(Cc3ccccc3)CC1)C2 (centres unmarked) [DPZ, Donepezil, reference compound]
Y-maze % (Sc.Aβ / Vhc = 100) ([1]; PO 0.25 mg/kg once a day): 56% | Y-maze Mean, percentage of alternation ([1]; PO 0.25 mg/kg once a day): 41.82% | Y-maze % (Sc.Aβ / Vhc = 100) ([1]; PO 1 mg/kg once a day): 93% | Y-maze Mean, percentage of alternation ([1]; PO 1 mg/kg once a day): 68.90% | effect on Aβ25-35-induced short-term memory deficits (Y-maze) at subactive dose, in words [1, 5]: do not impede | EL % (Sc.Aβ / Vhc = 100) ([2]; PO 0.25 mg/kg once a day): 445% | EL Mean, escape latency, retention session ([2]; PO 0.25 mg/kg once a day): 88.67 s | STL % (Sc.Aβ / Vhc = 100) ([2]; PO 0.25 mg/kg once a day): 39% | STL Mean, step-through latency, retention session ([2]; PO 0.25 mg/kg once a day): 109.33 s | EL % (Sc.Aβ / Vhc = 100) ([2]; PO 1 mg/kg once a day): 122% | EL Mean, escape latency, retention session ([2]; PO 1 mg/kg once a day): 24.25 s | STL % (Sc.Aβ / Vhc = 100) ([2]; PO 1 mg/kg once a day): 94% | STL Mean, step-through latency, retention session ([2]; PO 1 mg/kg once a day): 265.83 s | effect on contextual long-term memory deficits (STL and EL) at subactive dose, in words [2, 5]: do not impede | duration of efficacy (Y-maze), in words ([3]; Group 5, DPZ PO 1 mg/kg o.d.): efficient only until D36 | % of alternation at DPZ resistance ([3]; Group 5, after 4 weeks of DPZ treatment): 37% | Y-maze (D43) Mean (percentage of alternation) ([3]; Group 5: DPZ 1 mg/kg PO o.d. D01-D43, tested D43): 38.73% | Y-maze (D43) % ([3]; Group 5: DPZ 1 mg/kg PO o.d. D01-D43, tested D43, Group 1 = 100): 52% | Y-maze (D08) Mean, percentage of alternation ([3]; Group 5: DPZ 1 mg/kg PO o.d. from D01, tested D08): 72.08% | Y-maze (D08) % ([3]; Group 5: DPZ 1 mg/kg PO o.d. from D01, tested D08, Group 1 = 100): 98% | Y-maze (D15) Mean, percentage of alternation ([3]; Group 5: DPZ 1 mg/kg PO o.d. from D01, tested D15): 76.00% | Y-maze (D15) % ([3]; Group 5: DPZ 1 mg/kg PO o.d. from D01, tested D15, Group 1 = 100): 98% | Y-maze (D22) Mean, percentage of alternation ([3]; Group 5: DPZ 1 mg/kg PO o.d. from D01, tested D22): 79.07% | Y-maze (D22) % ([3]; Group 5: DPZ 1 mg/kg PO o.d. from D01, tested D22, Group 1 = 100): 106% | Y-maze (D29) Mean, percentage of alternation ([3]; Group 5: DPZ 1 mg/kg PO o.d. from D01, tested D29): 62.05% | Y-maze (D29) % ([3]; Group 5: DPZ 1 mg/kg PO o.d. from D01, tested D29, Group 1 = 100): 80% | Y-maze (D36) Mean (percentage of alternation) ([3]; Group 5: DPZ 1 mg/kg PO o.d. from D01, tested D36): 36.23% | Y-maze (D36) % ([3]; Group 5: DPZ 1 mg/kg PO o.d. from D01, tested D36, Group 1 = 100): 49%

N=C(N)NCCC[C@@H]1NC(=O)[C@H](CO)NC(=O)[C@@H](NC(=O)[C@H](CO)NC(=O)[C@H](CO)NC(=O)[C@H](Cc2c[nH]c3ccccc23)NC(=O)CNC(=O)[C@H](CO)NC(=O)[C@@H](N)Cc2c[nH]c3ccccc23)CSSC[C@@H](C(=O)NCC(=O)O)NC(=O)[C@H](CO)NC1=O [NX218, W-S-G-W-S-S-C-S-R-S-C-G] (H-WSGWSSCSRSCG-OH; disulfide 7-11; N-terminus and C-terminus assumed)
time after injection from which NX218 became impossible to quantify in plasma [4]: 3 h | AUC (PK study in monkey; [6]): 960 ng·h/mL | AUC(0-inf) (PK study in monkey; [6]): 1060 ng·h/mL | Cmax (PK study in monkey; [6]): 19300 ng/mL | Tmax (PK study in monkey; [6]): 0 h | clearance (PK study in monkey; [6]): 190 mL/min/kg | Vd (PK study in monkey; monkey plasma NX218 after bolus IV 10 mg/kg NX210, mean, read-out: VSS): 0.0936 L/kg | plasma concentration course after injection, in words (PK study in monkey; monkey, bolus IV 10 mg/kg of NX210): rapidly decreased up to 30 minutes | half-life (PK study in monkey; monkey, monkey plasma NX218 after bolus IV 10 mg/kg NX210, mean, read-out: t½): 12.7 min | half-life (PK study in monkey; monkey, monkey, bolus IV 10 mg/kg NX210, NX218 measured, read-out: half-life): ~12 min
